Experimental data taken from patent US20140024653A1, “COMPOSITIONS AND METHODS FOR TREATING CANCER USING PI3K INHIBITOR AND MEK INHIBITOR” (priority 2011, published 2014).
Like-named read-outs stand apart in the source and are kept apart here.

Columns and labels:
[1] = system: human colon carcinoma HCT 116; experiment: HCT116 tumor growth in fluorescence molecular tomography study; format: in vivo, SCID mice; conditions: (2a) 50 mg/kg oral daily day 11 to day 17; p=0.023
[2] = chemical stability of dosing stock solution; format: physicochemical; conditions: in the dark at 4° C.
Procedure: Compound (2a) formulation was prepared in water for injection. The stock solution was chemically stable 7 days in the dark at 4° C. […] The pH of the final solution was 3. […]

[3] = system: human primary colon tumors CR-LRB-009C; experiment: antitumor activity against subcutaneous CR-LRB-009C xenografts; format: in vivo
Procedure: The human primary colon carcinoma CR-LRB-009C tumor model was established by implanting (SC) small tumor fragments and was maintained in SCID female mice using serial passages.
(§1) Treatments were administered on measurable tumors. […] Mice were checked daily, and adverse clinical reactions noted.
(§2) Animal body weights included the tumor weight.
(§3) The primary efficacy end points are ΔT/ΔC, percent median regression, partial and complete regressions (PR and CR). Statistical analyses were performed on SAS system release 8.2 for SUN4 via Everstat V5 software and SAS 9.2 software. A probability less than 5% (p<0.05) was considered as significant.

[4] = system: HCT116 tumor vascular permeability; experiment: tumor vascular permeability, Evans Blue extravasation / Dextran-Fitc; format: in vivo, SCID mice; conditions: (2a) 50 mg/kg oral daily day 11 to day 13
Procedure: HCT116 tumor cells were implanted subcutaneously in the intra-scapular region in SCID mice. […] Each agent was given by oral route on a daily schedule. Tumor growth was monitored throughout the experiment by callipering the tumors. To quantify tumor vascular permeability, tumors were excised under ketamine/Xylazine (120/6 mg/kg ip) anesthesia at day 13, 4 hours post last treatment, 30 min after 0.5% Evans Blue iv injection, and 2 min post Dextran-Fitc 100 mg/kg iv injection. Tumors were then snap frozen, and 25 μm sections obtained for fluorescence quantification. Tumors sections were imaged with Icyte at 488 nm for vascular Dextran-Fitc determination and at 633 nm for Evans-Blue extravasation determination. Respective fluorescence were quantified as the sum of integral phantoms of fluorescence intensity and expressed as the mean ratio of Evans-Blue signal/Dextran-Fitc Signal.

[5] = system: human colon carcinoma HCT 116
Procedure: Mice were over 18 g at start of treatment after an acclimatization time of at least 5 days. […] The mice were housed on a 12 hours light/dark cycle.
Human colon carcinoma HCT 116 cells were purchased at American Type Culture Collection [(ATCC), Rockville, Md., USA). The HCT 116 cells were cultured in Dulbecco's modified Eagle's medium (DMEM) (Invitrogen).
The animals required to begin a given experiment were pooled and implanted monolaterally on day 0. Treatments were administered on measurable tumors. The solid tumors were allowed to grow to the desired volume range (animals with tumors not in the desired range were excluded). The mice were then pooled and unselectively distributed to the various treatment and control groups. […] The dosages are expressed in mg/kg, based on the body weight at start of therapy. Mice were checked daily, and adverse clinical reactions noted. Each group of mice was weighed as a whole daily until the weight nadir was reached. Then, groups were weighed once to thrice weekly until the end of the experiment. Tumors were measured with a caliper 2 to 3 times weekly until final sacrifice for sampling time, tumor reached 2000 mm^3 or until the animal died (whichever comes first). Solid tumor volumes were estimated from two-dimensional tumor measurements and calculated according to the following equation:
Changes in tumor volume for each treated (T) and control (C) group were calculated for each tumor by subtracting the tumor volume on the day of first treatment (staging day) from the tumor volume on the specified observation day. The median ΔT is calculated for the treated group, and the median ΔC is calculated for the control group. Then the ratio ΔT/ΔC is calculated and expressed as a percentage. The dose is considered as therapeutically active when ΔT/ΔC is lower than 40% and very active when ΔT/ΔC is lower than 10%.
The percent of tumor regression is defined as the % of tumor volume decrease in the treated group at a specified observation day compared to its volume on the first day of treatment. At a specific time point and for each animal, % regression is calculated. The median % regression is then calculated for the group using the following equation:
Partial regression: Regressions are defined as partial if the tumor volume decreases to 50% of the tumor volume at the start of treatment.
Complete regression: The CR is achieved when tumor volume=0 mm^3 (CR is considered when tumor volume cannot be recorded).

[6] = system: human pancreatic MiaPaCa-2; experiment: antitumor activity against subcutaneous MiaPaCa-2 xenografts; format: in vivo, nude mice; conditions: XL-147 50 mg/kg po QD, 21 days; 50 mg/kg
Procedure: The human pancreatic cancer cell line MiaPaCa-2 (American Type Culture Collection, Manassas Va.), was cultured in MEM medium containing 10% fetal bovine serum, 1% essential amino acid, 1% sodium pyruvate (Life Technologies, Carlsbad, Calif.). […] Cells were re-suspended in PBS (Life Technologies, Carlsbad, Calif.) and then mixed 1:1 with Matrigel (BD Biosciences, San Jose, Calif.). Cells were stored at 4° C. until implantation. MiaPaCa-2 cells (10×10^6 in a 200 μl PBS:Matrigel (1:1) suspension) were subcutaneously injected into the right flank area of female nude (Crl:NU-Foxn1nu) mice (6-8 weeks old, Charles River Laboratories, Wilmington, Mass.). All mice in this study were used according to the guidelines approved by the EMD-Serono Institutional Care and Animal Use Committee (IACUC), #07-003. Developing tumors located in the right flank area of female nude mice were measured over time with digital calipers. […] The remaining tumor-bearing mice were randomized into seven experimental groups (n=9), so that each group had the same mean tumor volume. […] The treatments began on the seventh day following implantation of the Miapaca-2 cells, which was designated as Day 0 for data evaluation purposes. […] Body weights and tumor volumes were assessed twice per week post treatment initiation. […] Efficacy was determined by analyzing tumor volumes and the percent ΔT/ΔC (% ΔT/ΔC). Tumor volume was determined by using the tumor length (1) and width (w) measurements and calculating the volume with the equation 1*w^2/2. The length was measured along the longest axis of the tumor and width was measured perpendicular to that length. The mean percent of actual tumor growth inhibited by the treatments was calculated as follows: [% ΔT/ΔC=(([…]))×100%], where TV=tumor volume, f=final, i=initial and Ctrl=control group. Tolerability was assessed by regarding percent body weight difference during the treatment period. Percent body weight difference was calculated as follows: [% Body weight difference=(BWc-BWi)/BWi×100%], where BW=body weight, c=current, i=initial.

[7] = system: human primary colon tumors CR-LRB-013P; experiment: antitumor activity against subcutaneous CR-LRB-013P xenografts; format: in vivo
Procedure: The human primary colon carcinoma CR-LRB-013P tumor model was established by implanting (SC) small tumor fragments and was maintained in SCID female mice using serial passages.
as §1, §2, §3

[8] = system: PC-3, U87-MG, A2058, WM-266-4 and MCF7 xenografts; conditions: oral administration alone; PTEN-deficient PC-3, U87-MG, A2058, WM-266-4 or PIK3CA mutated MCF7 xenografts; cited from earlier work
[9] = (2a) 75 mg/kg PO daily days 11-21
[10] = as single agents or used in combination
[11] = study 1, (2a) 50 mg/kg PO daily days 11-18
[12] = study 1, (2a) 75 mg/kg PO daily days 11-18
[13] = study 2, (2a) 50 mg/kg PO daily days 11-18
[14] = study 2, (2a) 75 mg/kg PO daily days 11-18
[15] = study 3, (2a) 50 mg/kg PO daily days 11-20
[16] = study 3, (2a) 75 mg/kg PO daily days 11-20
[17] = (2a) 75 mg/kg PO daily days 33-50

SMILES: COc1ccc(Cl)c(Nc2nc3ccccc3nc2NS(=O)(=O)c2cccc(NC(=O)C(C)(C)N)c2)c1 [Compound (2a), N-(3-{[(3-{[2-chloro-5-(methoxy)phenyl]amino}quinoxalin-2-yl)amino]sulfonyl}phenyl)-2-methylalaninamide]
- ΔT/ΔC at the end of study [1]: 36%
- stock solution chemically stable ([2]; in 1N HCl and water for injection, pH 3): 7 days
- stock solution chemically stable ([2]; in water for injection): 7 days
- Average body weight change in % per mouse at nadir [3, 9]: −15.8 (21) %
- Drug death [3, 9]: 0/7
- Median ΔT/ΔC in % day 21 [3, 9]: 39%
- Regressions Complete [3, 9]: 0/7
- Regressions Partial [3, 9]: 0/7
- tolerability [3, 10]: tolerated, inducing some BWL but not reaching toxicity
- decrease of the Evans-Blue/Dextran-Fitc ratio compared to control [4]: −8%
- Average body weight change in % per mouse at nadir [5, 11]: −5.8 (18) %
- Drug death [5, 11]: 0/7
- Median ΔT/ΔC in % day 18 [5, 11]: 62%
- Regressions Complete [5, 11]: 0/7
- Regressions Partial [5, 11]: 0/7
- Average body weight change in % per mouse at nadir [5, 12]: −8.3 (18) %
- Drug death [5, 12]: 0/7
- Median ΔT/ΔC in % day 18 [5, 12]: 80%
- Regressions Complete [5, 12]: 0/7
- Regressions Partial [5, 12]: 0/7
- tolerability ([5]; study 1, as single agents or used in combination): well-tolerated, inducing minimal BWL
- Average body weight change in % per mouse at nadir [5, 13]: −7.7 (18) %
- Drug death [5, 13]: 0/7
- Median ΔT/ΔC in % day 18 [5, 13]: 52%
- Regressions Complete [5, 13]: 0/7
- Regressions Partial [5, 13]: 0/7
- Average body weight change in % per mouse at nadir [5, 14]: −6.7 (18) %
- Drug death [5, 14]: 0/7
- Median ΔT/ΔC in % day 18 [5, 14]: 56%
- Regressions Complete [5, 14]: 0/7
- Regressions Partial [5, 14]: 0/7
- tolerability ([5]; study 2, as single agents): well-tolerated, inducing minimal BWL
- Average body weight change in % per mouse at nadir [5, 15]: −7.8 (19) %
- Drug death [5, 15]: 0/10
- Median ΔT/ΔC in % day 20 [5, 15]: 66%
- Regressions Complete [5, 15]: 0/10
- Regressions Partial [5, 15]: 0/10
- Average body weight change in % per mouse at nadir [5, 16]: −8.5 (20) %
- Drug death [5, 16]: 0/10
- Median ΔT/ΔC in % day 20 [5, 16]: 64%
- Regressions Complete [5, 16]: 0/10
- Regressions Partial [5, 16]: 0/10
- tolerability ([5]; study 3, as single agents): well-tolerated, inducing minimal BWL
- % ΔT/ΔC [6]: 71.2%
- Average body weight change in % per mouse at nadir [7, 17]: −9.2 (50) %
- Drug death [7, 17]: 0/7
- Median ΔT/ΔC in % day 50 [7, 17]: 53%
- Regressions Complete [7, 17]: 0/7
- Regressions Partial [7, 17]: 0/7
- tolerability [7, 10]: tolerated, inducing some BWL but not reaching toxicity
- tumor growth [8]: inhibits tumor growth
